Laboratory results from ChEMBL document CHEMBL3217484, “N1-Benzyl substituted cambinol analogues as isozyme selective inhibitors of the sirtuin family of protein deacetylases” (Medchemcomm, 2011).

What was measured:
[1] = molecular target: T1, NAD-dependent protein deacetylase sirtuin-2 (Homo sapiens) (UniProt Q8IXJ6); experiment: Inhibition of human recombinant SIRT2 using fluor de Lys as substrate at 60 uM after 1 hr by fluorimeter analysis
T1 sequence (whole entry): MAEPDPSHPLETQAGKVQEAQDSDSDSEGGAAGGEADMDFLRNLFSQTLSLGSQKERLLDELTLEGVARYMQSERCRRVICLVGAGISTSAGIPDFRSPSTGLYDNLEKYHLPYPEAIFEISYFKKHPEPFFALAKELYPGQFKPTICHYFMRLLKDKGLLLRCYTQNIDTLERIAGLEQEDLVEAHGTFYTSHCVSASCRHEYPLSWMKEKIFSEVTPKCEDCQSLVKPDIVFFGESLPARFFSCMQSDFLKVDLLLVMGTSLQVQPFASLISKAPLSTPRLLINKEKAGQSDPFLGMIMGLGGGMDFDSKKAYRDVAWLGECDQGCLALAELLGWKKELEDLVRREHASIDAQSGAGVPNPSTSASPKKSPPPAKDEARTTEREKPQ

[2] = molecular target: T2, NAD-dependent protein deacetylase sirtuin-1 (Homo sapiens) (UniProt Q96EB6); experiment: Inhibition of human recombinant SIRT1 using fluor de Lys as substrate at 60 uM after 1 hr by fluorimeter analysis
T2 sequence (whole entry): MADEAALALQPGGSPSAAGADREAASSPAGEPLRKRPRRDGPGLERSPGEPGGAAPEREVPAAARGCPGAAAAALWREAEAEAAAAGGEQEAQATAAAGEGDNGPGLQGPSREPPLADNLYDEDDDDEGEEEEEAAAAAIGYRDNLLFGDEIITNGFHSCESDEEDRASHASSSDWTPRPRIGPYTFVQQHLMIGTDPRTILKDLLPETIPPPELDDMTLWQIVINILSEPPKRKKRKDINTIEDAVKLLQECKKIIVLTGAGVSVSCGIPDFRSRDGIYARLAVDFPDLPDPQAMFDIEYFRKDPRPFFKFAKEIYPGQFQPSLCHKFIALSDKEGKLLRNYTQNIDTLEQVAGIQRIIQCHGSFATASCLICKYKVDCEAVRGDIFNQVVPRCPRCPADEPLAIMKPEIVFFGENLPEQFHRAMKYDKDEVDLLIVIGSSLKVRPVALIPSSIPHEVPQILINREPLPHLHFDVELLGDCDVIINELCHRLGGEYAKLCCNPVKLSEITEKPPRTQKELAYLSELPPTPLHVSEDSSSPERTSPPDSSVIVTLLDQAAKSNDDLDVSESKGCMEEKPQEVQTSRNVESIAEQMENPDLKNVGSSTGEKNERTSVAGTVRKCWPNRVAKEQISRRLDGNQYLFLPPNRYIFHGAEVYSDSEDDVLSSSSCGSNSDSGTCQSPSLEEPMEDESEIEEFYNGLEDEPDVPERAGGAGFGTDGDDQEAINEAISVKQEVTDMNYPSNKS

[3] = molecular target: T3, NAD-dependent protein deacetylase sirtuin-2 (Homo sapiens, UniProt Q8IXJ6); experiment: Inhibition of human recombinant SIRT2 using fluor de Lys as substrate after 1 hr by fluorimeter analysis
T3 sequence (Q8IXJ6 whole entry): T1 sequence (whole entry)

[4] = molecular target: T4, NAD-dependent protein deacetylase sirtuin-1 (Homo sapiens, UniProt Q96EB6); experiment: Inhibition of human recombinant SIRT1 using fluor de Lys as substrate after 1 hr by fluorimeter analysis
T4 sequence (Q96EB6 whole entry): T2 sequence (whole entry)

H1299 = experiment: Inhibition of sirtuin in human H1299 cells assessed increase in alpha-tubulin acetylation at 60 uM after 24 hrs by Western blot analysis in presence of trichostatin-A relative to control; assay type: cell-based

Row | inhibition [1] [%] | inhibition [2] [%] | IC50 [3] [µM] | IC50 [4] [µM] | SMILES | fold change (FC) (H1299)
1 | 66.1 | 8.8 |  |  | COc1ccc(Cn2c(-c3ccccc3)c(Cc3c(OC)ccc4ccccc34)c(=O)[nH]c2=S)cc1 | 
2 | 72.2 | 19.3 | 16 | > 120 | CCOc1ccc(Cn2c(-c3ccccc3)c(Cc3c(OC)ccc4ccccc34)c(=O)[nH]c2=S)cc1 | 
3 | 88.9 | 13.4 | 4 | > 120 | CCOc1ccc(Cn2c(-c3ccccc3)c(Cc3c(O)ccc4ccccc34)c(=O)[nH]c2=S)cc1 | 1.7
4 | 73.4 |  | 12 | 58.2 | COc1ccc(Cn2c(-c3ccccc3)c(Cc3c(O)ccc4ccccc34)c(=O)[nH]c2=S)cc1 | 
5 | 66.1 | 32.7 |  |  | CCCCOc1ccc(Cn2c(-c3ccccc3)c(Cc3c(OC)ccc4ccccc34)c(=O)[nH]c2=S)cc1 | 
6 | 37.7 |  |  |  | COc1ccc2ccccc2c1Cc1c(-c2ccccc2)n(Cc2ccccc2)c(=S)[nH]c1=O | 
7 | 71.8 | 38 | 11 | 61.9 | CCCOc1ccc(Cn2c(-c3ccccc3)c(Cc3c(OC)ccc4ccccc34)c(=O)[nH]c2=S)cc1 | 

Second part, the compound before the results:

Row | SMILES | inhibition [1] [%] | inhibition [2] [%] | IC50 [3] [µM] | IC50 [4] [µM] | fold change (FC) (H1299)
8 | COc1ccc(Cn2c(-c3ccccc3)c(Cc3c(OCc4ccccc4)ccc4ccccc34)c(=O)[nH]c2=S)cc1 | 56.9 | 29.8 |  |  | 
9 | O=c1[nH]c(=S)n(Cc2ccccc2)c(-c2ccccc2)c1Cc1ccccc1 | 45.1 | 23 |  |  | 
10 | COc1ccc(Cn2c(-c3ccccc3)c(Cc3ccccc3)c(=O)[nH]c2=S)cc1 | 67 | 32.2 |  |  | 
11 | CCOc1ccc(Cn2c(-c3ccccc3)c(Cc3ccccc3)c(=O)[nH]c2=S)cc1 | 73.3 | 35 | 10 | 68.1 | 
12 | O=c1[nH]c(=S)n(Cc2ccccc2)c(-c2ccccc2)c1Cc1c(OCc2ccccc2)ccc2ccccc12 | 48.4 | 25.4 |  |  | 
13 | COc1ccc2ccccc2c1Cc1c(-c2ccccc2)n(C)c(=S)[nH]c1=O | 37.7 | 36.2 |  |  | 
14 | O=c1[nH]c(=S)n(Cc2ccccc2)c(-c2ccccc2)c1Cc1c(O)ccc2ccccc12 | 62 | 10.8 |  |  | 
15 | CCOc1ccc(Cn2c(-c3ccccc3)c(Cc3c(OCc4ccccc4)ccc4ccccc34)c(=O)[nH]c2=S)cc1 | 67.2 | 36.6 |  |  | 
16 | CCCOc1ccc(Cn2c(-c3ccccc3)c(Cc3c(OCc4ccccc4)ccc4ccccc34)c(=O)[nH]c2=S)cc1 | 65.1 | 22.8 |  |  | 
17 | O=c1cc(-c2ccccc2)n(Cc2ccccc2)c(=S)[nH]1 | 27 | 1.8 |  |  | 
18 | CCCOc1ccc(Cn2c(-c3ccccc3)c(Cc3c(O)ccc4ccccc34)c(=O)[nH]c2=S)cc1 | 85.4 | 15.6 | 6 | > 120 | 
19 | O=c1[nH]c(=S)[nH]c(-c2ccccc2)c1Cc1c(O)ccc2ccccc12 |  |  |  |  | 1.3
20 | CCCCn1c(-c2ccc(Cl)cc2)c(Cc2c(OC)ccc3ccccc23)c(=O)[nH]c1=S | 49.4 | 18.4 |  |  | 
21 | CCCCn1c(-c2ccccc2C)c(Cc2c(OC)ccc3ccccc23)c(=O)[nH]c1=S | 37.3 | 11.5 |  |  | 
22 | CCCCOc1ccc(Cn2c(-c3ccccc3)c(Cc3ccccc3)c(=O)[nH]c2=S)cc1 | 63.3 | 8.5 |  |  | 
